Legend:
Format in all cases: functional, cell-based
[1] = tested on: COR-L88; test: Cytotoxicity against human COR-L88 cells measured after 8 days; conditions: COR-L88, 192 h
[2] = tested on: KYSE-520 cell line; test: Cytotoxicity against human KYSE520 cells measured after 8 days; conditions: KYSE-520, 192 h
[3] = tested on: SK-HEP1; test: Cytotoxicity against human SK-HEP1 cells measured after 8 days; conditions: SK-HEP1, 192 h
[4] = tested on: SUP-B15; test: Cytotoxicity against human SUP-B15 cells measured after 8 days; conditions: SUP-B15, 192 h
[5] = Cytotoxicity against human NCI-H2369 cells measured after 8 days; conditions: NCI-H2369, 192 h
[6] = tested on: JJN-3; test: Cytotoxicity against human JJN-3 cells measured after 8 days; conditions: JJN-3, 192 h
[7] = Cytotoxicity against human HCC1010 cells measured after 8 days; conditions: HCC1010, 192 h
[8] = Cytotoxicity against human SCLC-22H cells measured after 8 days; conditions: 192 h
[9] = tested on: DMS-273; test: Cytotoxicity against human DMS-273 cells measured after 8 days; conditions: DMS-273, 192 h
[10] = tested on: 786-0; test: Cytotoxicity against human 786-0 cells measured after 8 days; conditions: 786-0, 192 h
[11] = tested on: MDA-MB-435; test: Cytotoxicity against human MDA-MB-435 cells measured after 8 days; conditions: MDA-MB-435, 192 h
[12] = tested on: MES-SA; test: Cytotoxicity against human MES-SA cells measured after 8 days; conditions: 192 h
[13] = Cytotoxicity against human HSC-5 cells measured after 8 days; conditions: HSC-5, 192 h
[14] = tested on: 769-P; test: Cytotoxicity against human 769-P cells measured after 8 days; conditions: 192 h
[15] = Cytotoxicity against human UM-RC-7 cells measured after 8 days; conditions: UM-RC-7, 192 h
[16] = tested on: H322; test: Cytotoxicity against human H322 cells measured after 8 days; conditions: NCI-H322, 192 h
[17] = Cytotoxicity against human OVISE cells measured after 8 days; conditions: 192 h
[18] = tested on: SCLC-21H; test: Cytotoxicity against human SCLC-21H cells measured after 8 days; conditions: 192 h
[19] = tested on: SK-N-BE(2)-M17; test: Cytotoxicity against human SK-N-BE(2)-M17 cells measured after 8 days; conditions: SK-N-BE(2)-M17, 192 h
[20] = tested on: Hs746T; test: Cytotoxicity against human Hs746T cells measured after 8 days; conditions: 192 h
[21] = tested on: NUGC-3; test: Cytotoxicity against human NUGC-3 cells measured after 8 days; conditions: NUGC-3, 192 h
[22] = Cytotoxicity against human ECC-1 cells measured after 8 days; conditions: ECC-1, 192 h
[23] = Cytotoxicity against human GR-M cells measured after 8 days; conditions: 192 h
[24] = Cytotoxicity against mouse 66cl-4 cells measured after 8 days; conditions: 66cl-4, 192 h
[25] = tested on: HEC-1B cell line; test: Cytotoxicity against human HEC-1B cell line measured after 8 days; conditions: 192 h
[26] = Cytotoxicity against human CoCM-1 cells measured after 8 days; conditions: CoCM-1, 192 h
[27] = tested on: OVCAR-3; test: Cytotoxicity against human OVCAR-3 cells measured after 8 days; conditions: OVCAR-3, 192 h
[28] = Cytotoxicity against human KLM-1 cells measured after 8 days; conditions: KLM1, 192 h
[29] = Cytotoxicity against human COR-L26 cells measured after 8 days; conditions: COR-L26, 192 h
[30] = tested on: RPMI-7951; test: Cytotoxicity against human RPMI-7951 cells measured after 8 days; conditions: RPMI-7951, 192 h
[31] = tested on: NCI-H446; test: Cytotoxicity against human NCI-H446 cells measured after 8 days; conditions: NCI-H446, 192 h
[32] = tested on: IGR-1; test: Cytotoxicity against human IGR-1 cells measured after 8 days; conditions: IGR-1, 192 h
[33] = tested on: RVH-421; test: Cytotoxicity against human RVH-421 cells measured after 8 days; conditions: RVH-421, 192 h
[34] = Cytotoxicity against human HCC1159 cells measured after 8 days; conditions: HCC1159, 192 h
[35] = tested on: 23132-87; test: Cytotoxicity against human 23132-87 cells measured after 8 days; conditions: 23132-87, 192 h
[36] = Cytotoxicity against human HEC-50B cells measured after 8 days; conditions: 192 h
[37] = tested on: EL4; test: Cytotoxicity against mouse EL4 cells measured after 8 days; conditions: EL4, 192 h
[38] = tested on: SK-MEL-30; test: Cytotoxicity against human SK-MEL-30 cells measured after 8 days; conditions: SK-MEL-30, 192 h
[39] = tested on: CAKI-1; test: Cytotoxicity against human CAKI-1 cells measured after 8 days; conditions: CAKI-1, 192 h
[40] = Cytotoxicity against human 4498-16820 Mel-BR1 X1 cells measured after 8 days; conditions: 4498-16820 Mel-BR1 X1, 192 h
[41] = tested on: U-266; test: Cytotoxicity against human U266B1 cells measured after 8 days; conditions: U-266, 192 h
[42] = Cytotoxicity against human HCC1263 cells measured after 8 days; conditions: HCC1263, 192 h
[43] = Cytotoxicity against human COV318 cells measured after 8 days; conditions: COV318, 192 h
[44] = Cytotoxicity against human TCC-Pan2 cells measured after 8 days; conditions: TCC-Pan2, 192 h
[45] = Cytotoxicity against human NCE-G 124 cells measured after 8 days; conditions: NCE-G 124, 192 h
[46] = Cytotoxicity against human NCE-G 96 cells measured after 8 days; conditions: NCE-G 96, 192 h
[47] = tested on: OV-90; test: Cytotoxicity against human OV-90 cells measured after 8 days; conditions: OV-90, 192 h
[48] = tested on: COLO 201; test: Cytotoxicity against human COLO201 cells measured after 8 days; conditions: COLO 201, 192 h
[49] = Cytotoxicity against human SNU-216 cells measured after 8 days; conditions: SNU-216, 192 h
[50] = tested on: Hs 683; test: Cytotoxicity against human Hs 683 cells measured after 8 days; conditions: Hs 683, 192 h
[51] = Cytotoxicity against human 4498-16820 Mel-BR1 cells measured after 8 days; conditions: 4498-16820 Mel-BR1, 192 h
[52] = tested on: KALS-1; test: Cytotoxicity against human KALS-1 cells measured after 8 days; conditions: KALS-1, 192 h
[53] = tested on: Panc02; test: Cytotoxicity against mouse Panc02 cells measured after 8 days; conditions: Panc02, 192 h
[54] = tested on: KM12; test: Cytotoxicity against human KM12 cells measured after 8 days; conditions: KM12, 192 h
[55] = Cytotoxicity against human KHM-1B cells measured after 8 days; conditions: 192 h
[56] = tested on: SU-DHL10; test: Cytotoxicity against human SU-DHL-10 cells measured after 8 days; conditions: SU-DHL10, 192 h
[57] = tested on: EJM; test: Cytotoxicity against human EJM cells measured after 8 days; conditions: 192 h
[58] = Cytotoxicity against human HCC2885 cells measured after 8 days; conditions: HCC2885, 192 h
[59] = Cytotoxicity against human HCC364 cells measured after 8 days; conditions: HCC364, 192 h
[60] = tested on: MM1.S; test: Cytotoxicity against human MM1.S cells measured after 8 days; conditions: 192 h

SMILES: C/C=C/Cn1cc(-c2ccc(C(C)(C)O)cc2OC)c2cc[nH]c2c1=O
- IC50 [1]: 20 µM
- IC50 [2]: 14.4 µM
- IC50 [3]: 20 µM
- IC50 [4]: 20 µM
- IC50 [5]: 20 µM
- IC50 [6]: 17.6 µM
- IC50 [7]: 20 µM
- IC50 [8]: 20 µM
- IC50 [9]: 20 µM
- IC50 [10]: 20 µM
- IC50 [11]: 11.1 µM
- IC50 [12]: 7.08 µM
- IC50 [13]: 20 µM
- IC50 [14]: 20 µM
- IC50 [15]: 20 µM
- IC50 [16]: 20 µM
- IC50 [17]: 20 µM
- IC50 [18]: 20 µM
- IC50 [19]: 20 µM
- IC50 [20]: 20 µM
- IC50 [21]: 20 µM
- IC50 [22]: 20 µM
- IC50 [23]: 20 µM
- IC50 [24]: 20 µM
- IC50 [25]: 20 µM
- IC50 [26]: 20 µM
- IC50 [27]: 20 µM
- IC50 [28]: 20 µM
- IC50 [29]: 20 µM
- IC50 [30]: 20 µM
- IC50 [31]: 20 µM
- IC50 [32]: 20 µM
- IC50 [33]: 20 µM
- IC50 [34]: 20 µM
- IC50 [35]: 20 µM
- IC50 [36]: 20 µM
- IC50 [37]: 20 µM
- IC50 [38]: 20 µM
- IC50 [39]: 20 µM
- IC50 [40]: 20 µM
- IC50 [41]: 20 µM
- IC50 [42]: 20 µM
- IC50 [43]: 20 µM
- IC50 [44]: 20 µM
- IC50 [45]: 20 µM
- IC50 [46]: 20 µM
- IC50 [47]: 20 µM
- IC50 [48]: 20 µM
- IC50 [49]: 20 µM
- IC50 [50]: 20 µM
- IC50 [51]: 15.5 µM
- IC50 [52]: 20 µM
- IC50 [53]: 20 µM
- IC50 [54]: 20 µM
- IC50 [55]: 20 µM
- IC50 [56]: 10.9 µM
- IC50 [57]: 20 µM
- IC50 [58]: 20 µM
- IC50 [59]: 20 µM
- IC50 [60]: 20 µM

— ChEMBL document CHEMBL5260810, “Inhibition of bromodomain-containing protein 9 for the prevention of epigenetically-defined drug resistance” (Bioorg Med Chem Lett, 2017)
